Here are results for 3 compounds from publication PMC4254624 (Biochemical and biophysical research communications, 2014).

The target in test [1] is T1, EcSecA intrinsic ATPase (Escherichia coli, UniProt P10408). Put plainly: Intrinsic ATPase activity assay of EcSecA. Conditions: for Ki: read-out: apparent Ki, intrinsic ATPase; for Km / Vmax: Intrinsic. The class given is biochemical.
In the next test the target is EcSecA (Escherichia coli, UniProt P10408). Kind of test: SecA ion channel activity in Xenopus oocytes. Conditions: for IC50: read-out: IC50 inhibition of SecA channel activity in oocytes, EcSecA. It is filed as cell-based.
Chain of EcSecA (P10408 whole entry): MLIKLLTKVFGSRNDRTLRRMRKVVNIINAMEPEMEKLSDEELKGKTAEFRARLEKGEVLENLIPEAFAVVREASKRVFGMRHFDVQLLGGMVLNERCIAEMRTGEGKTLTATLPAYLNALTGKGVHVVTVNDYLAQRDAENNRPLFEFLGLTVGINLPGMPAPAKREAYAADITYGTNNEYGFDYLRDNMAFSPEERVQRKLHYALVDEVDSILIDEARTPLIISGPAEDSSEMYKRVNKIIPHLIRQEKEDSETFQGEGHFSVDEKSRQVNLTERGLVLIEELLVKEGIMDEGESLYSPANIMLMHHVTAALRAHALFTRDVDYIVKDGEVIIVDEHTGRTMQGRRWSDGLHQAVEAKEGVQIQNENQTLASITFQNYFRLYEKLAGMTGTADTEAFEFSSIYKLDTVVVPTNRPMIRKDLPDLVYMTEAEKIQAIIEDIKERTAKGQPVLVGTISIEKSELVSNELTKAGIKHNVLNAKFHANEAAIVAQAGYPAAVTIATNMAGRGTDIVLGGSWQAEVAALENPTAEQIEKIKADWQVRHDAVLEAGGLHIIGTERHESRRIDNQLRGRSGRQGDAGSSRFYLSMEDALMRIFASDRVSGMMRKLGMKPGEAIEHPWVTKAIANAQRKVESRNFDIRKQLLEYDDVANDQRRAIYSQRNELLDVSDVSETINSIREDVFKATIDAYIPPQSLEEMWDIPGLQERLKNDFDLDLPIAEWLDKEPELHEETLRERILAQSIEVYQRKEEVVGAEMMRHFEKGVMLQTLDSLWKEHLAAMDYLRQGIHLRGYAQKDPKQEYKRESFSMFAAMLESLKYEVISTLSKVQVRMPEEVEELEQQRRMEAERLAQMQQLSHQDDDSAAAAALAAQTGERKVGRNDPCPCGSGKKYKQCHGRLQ
The target of another test is EcSecA membrane ATPase (Escherichia coli, UniProt P10408). Kind of test: Membrane ATPase activity assay of EcSecA with urea-washed BA13 membrane. The class given is biochemical.
Chain of EcSecA membrane ATPase (P10408 whole entry): as above
Another test concerns the target BsSecA intrinsic ATPase (Bacillus subtilis, UniProt P28366). Put plainly: Intrinsic ATPase activity assay of BsSecA. It is filed as biochemical.
The target of another test is BsSecA (Bacillus subtilis, UniProt P28366). Kind of test: SecA ion channel activity in Xenopus oocytes. The class given is cell-based. Conditions: for IC50: read-out: IC50 inhibition of SecA channel activity in oocytes, BsSecA.
Chain of BsSecA (P28366 whole entry): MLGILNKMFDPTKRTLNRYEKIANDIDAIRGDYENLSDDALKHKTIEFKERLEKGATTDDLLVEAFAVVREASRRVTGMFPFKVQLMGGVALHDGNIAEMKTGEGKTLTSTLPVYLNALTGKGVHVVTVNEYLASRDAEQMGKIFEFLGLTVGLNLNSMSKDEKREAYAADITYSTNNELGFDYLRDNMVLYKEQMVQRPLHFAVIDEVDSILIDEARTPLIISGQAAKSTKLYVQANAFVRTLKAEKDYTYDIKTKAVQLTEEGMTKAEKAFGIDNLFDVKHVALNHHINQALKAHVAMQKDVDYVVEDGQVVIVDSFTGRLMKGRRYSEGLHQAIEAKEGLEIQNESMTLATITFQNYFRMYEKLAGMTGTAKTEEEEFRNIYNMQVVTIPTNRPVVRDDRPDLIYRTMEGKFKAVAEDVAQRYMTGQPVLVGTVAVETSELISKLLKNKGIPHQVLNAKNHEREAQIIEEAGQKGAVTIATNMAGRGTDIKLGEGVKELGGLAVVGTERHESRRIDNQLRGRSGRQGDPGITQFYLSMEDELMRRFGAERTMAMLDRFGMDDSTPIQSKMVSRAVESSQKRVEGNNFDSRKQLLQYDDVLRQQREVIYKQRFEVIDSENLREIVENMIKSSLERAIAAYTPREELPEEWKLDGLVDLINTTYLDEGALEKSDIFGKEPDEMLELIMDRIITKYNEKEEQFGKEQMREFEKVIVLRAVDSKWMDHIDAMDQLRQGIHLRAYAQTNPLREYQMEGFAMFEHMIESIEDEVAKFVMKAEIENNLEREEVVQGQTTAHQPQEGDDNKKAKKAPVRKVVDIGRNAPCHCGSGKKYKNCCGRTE
The target in the next test is PaSecA (Pseudomonas aeruginosa, UniProt Q9LCT3). Put plainly: SecA ion channel activity in Xenopus oocytes. Particulars: for IC50: read-out: IC50 inhibition of SecA channel activity in oocytes, PaSecA. The class given is cell-based, P. aeruginosa.
Chain of PaSecA (Q9LCT3 whole entry): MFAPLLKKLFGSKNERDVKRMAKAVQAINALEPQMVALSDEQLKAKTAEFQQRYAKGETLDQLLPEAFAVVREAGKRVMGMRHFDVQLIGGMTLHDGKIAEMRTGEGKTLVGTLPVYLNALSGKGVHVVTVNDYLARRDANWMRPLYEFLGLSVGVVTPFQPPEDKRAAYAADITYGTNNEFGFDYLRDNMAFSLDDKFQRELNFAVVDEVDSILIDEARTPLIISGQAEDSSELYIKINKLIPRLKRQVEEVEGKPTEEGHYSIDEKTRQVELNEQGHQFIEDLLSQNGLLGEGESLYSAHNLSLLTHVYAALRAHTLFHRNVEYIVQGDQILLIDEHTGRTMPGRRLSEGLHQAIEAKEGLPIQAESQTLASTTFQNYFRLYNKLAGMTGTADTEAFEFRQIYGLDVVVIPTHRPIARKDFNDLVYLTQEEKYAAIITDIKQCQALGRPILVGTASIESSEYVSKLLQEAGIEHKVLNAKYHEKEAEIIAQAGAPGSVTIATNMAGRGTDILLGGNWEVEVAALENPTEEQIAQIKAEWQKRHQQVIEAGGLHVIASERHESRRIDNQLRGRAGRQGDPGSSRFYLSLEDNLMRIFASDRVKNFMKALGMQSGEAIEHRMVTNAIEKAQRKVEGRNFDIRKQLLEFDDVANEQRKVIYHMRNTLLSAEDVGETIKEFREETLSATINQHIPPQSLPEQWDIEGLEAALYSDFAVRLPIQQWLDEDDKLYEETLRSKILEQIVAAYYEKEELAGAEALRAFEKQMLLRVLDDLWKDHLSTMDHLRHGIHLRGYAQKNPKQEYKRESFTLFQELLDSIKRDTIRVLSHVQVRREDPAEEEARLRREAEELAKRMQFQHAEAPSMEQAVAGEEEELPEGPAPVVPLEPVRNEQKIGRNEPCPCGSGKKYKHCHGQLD
Test [2] addresses EcSecA translocation ATPase (Escherichia coli, UniProt P10408). Put plainly: Translocation ATPase activity assay of EcSecA with BA13 membrane and proOmpA. The class given is biochemical. Conditions: for Km / Vmax: Translocation.
In test [3] the target is T1, EcSecA intrinsic ATPase. Particulars: cited from earlier work.
Where [4] appears, read: high ATP concentrations (above 1 mM), non-competitive.
Setting [5] is: low ATP concentrations (below 0.6 mM), competitive.

A word on the IC50: it is the point on the concentration scale where inhibition reaches its midpoint. Usually Km stands for the concentration of substrate that gives half-maximal velocity.

Like-named read-outs stand apart in the source and are kept apart here.

Chain of EcSecA translocation ATPase (P10408 whole entry): as the sequence (P10408 whole entry) above
T1 sequence (P10408 whole entry): as above
Chain of BsSecA intrinsic ATPase (P28366 whole entry): as the sequence (P28366 whole entry) above

`O.O=C([O-])c1ccccc1-c1c2cc(I)c(=O)c(I)c-2oc2c(I)c([O-])c(I)cc12.[Na+].[Na+]` [EB, Erythrocin B]: the “mechanism of inhibition of intrinsic ATPase versus ATP” value on EcSecA intrinsic ATPase [1] (high ATP concentrations) is “non-competitively”; at EcSecA intrinsic ATPase [1] (low ATP concentrations), “competitively”. The results for the Ki on EcSecA intrinsic ATPase [1] (setting [4]) and on EcSecA intrinsic ATPase [1] (setting [5]) were 34.3 ± 8.08 µM and 4.06 ± 0.32 µM, respectively.
Take `O=C1OC2(c3cc(I)c(O)c(I)c3Oc3c2cc(I)c(O)c3I)c2c(Cl)c(Cl)c(Cl)c(Cl)c21` [RB, Rose Bengal]: the “mechanism of inhibition of channel activity” value on EcSecA (EcSecA-SecYEG-SecDF•YajC liposomes in oocytes) is reported as “non-competitive inhibition pattern”. Moreover, the “mechanism of inhibition of liposome channel activity with ATP” value at EcSecA (EcSecA-liposomes in oocytes), on BsSecA (BsSecA-liposomes in oocytes) and at PaSecA (PaSecA-liposomes in oocytes) was “non-competitive inhibition” in each case. Besides, the IC50 was 4.7 ± 0.1 µM on EcSecA (BA13 memb); 3.8 ± 0.3 µM on EcSecA (L+SecYEG +SecDF•C); 4.4 ± 0.1 µM at EcSecA (RE-13 memb +SecYEG-DF•C); 5.8 ± 0.3 µM at BsSecA (BA13 memb); 4.5 ± 0.2 µM at BsSecA (L+SecYEG +SecDF•C); 5.2 ± 0.3 µM on BsSecA (RE-13 memb +SecYEG-DF•C). Besides, the IC50 came out at 5.1 ± 0.2 µM at PaSecA (BA13 memb); 2 ± 0.3 µM at PaSecA (L+SecYEG +SecDF•C); 0.3 ± 0.2 µM on PaSecA (Lipo); 5.1 ± 0.2 µM at PaSecA (RE-13 memb +SecYEG); 5.1 ± 0.1 µM at PaSecA (RE-13 memb +SecYEG-DF•C). Further, the “mechanism of inhibition of membrane ATPase” value on EcSecA membrane ATPase was “mixed-mechanism”. In addition, the Vmax came out at 13.61 molePi·moleSecA^−1min^−1 at EcSecA membrane ATPase (Membrane, RB 2 μM); 8.18 molePi·moleSecA^−1min^−1 at EcSecA membrane ATPase (Membrane, RB 4 μM); 6.08 molePi·moleSecA^−1min^−1 at EcSecA intrinsic ATPase [1] (High [ATP], RB 20 μM); 3.99 molePi·moleSecA^−1min^−1 at EcSecA intrinsic ATPase [1] (High [ATP], RB 40 μM); 3.07±0.16 molePi·moleSecA^−1min^−1 at EcSecA intrinsic ATPase [1] (Low [ATP], RB 20 μM); 3.07±0.16 molePi·moleSecA^−1min^−1 on EcSecA intrinsic ATPase [1] (Low [ATP], RB 40 μM). Also, the Vmax in test [2] (RB 0.75 μM) was 23.42 molePi·moleSecA^−1min^−1; in test [2] (RB 1 μM), 15.06 molePi·moleSecA^−1min^−1. In addition, the Km on EcSecA membrane ATPase (Membrane, RB 4 μM) is 310 µM; at EcSecA intrinsic ATPase [1] (High [ATP], RB 20 μM), 1680 µM; at EcSecA intrinsic ATPase [1] (High [ATP], RB 40 μM), 1680 µM; on EcSecA intrinsic ATPase [1] (Low [ATP], RB 20 μM), 250 µM; at EcSecA intrinsic ATPase [1] (Low [ATP], RB 40 μM), 460 µM; in test [2] (RB 0.75 μM) it was 180 µM. Also, the Km in test [2] (RB 1 μM) was found to be 180 µM. Besides, the Ki worked out at 1.42 ± 0.22 µM on EcSecA membrane ATPase (read-out: average Ki, membrane ATPase, mixed-mechanism); 57.1 ± 3.37 µM on EcSecA intrinsic ATPase [1] (setting [4]); 22.4 ± 3.33 µM on EcSecA intrinsic ATPase [1] (setting [5]); 0.43 ± 0.02 µM in test [2] (read-out: Ki, translocation ATPase, non-competitive, broad range of ATP concentrations). For the same compound, the “mechanism of inhibition of intrinsic ATPase” value at BsSecA intrinsic ATPase is recorded as “two-site inhibition depending on the concentration of ATP”. For the same compound, the entries for the “mechanism of inhibition of intrinsic ATPase versus ATP” value at EcSecA intrinsic ATPase [1] (high ATP concentrations) and at EcSecA intrinsic ATPase [1] (low ATP concentrations) were “non-competitive inhibitor” and “competitive inhibitor”, respectively. Further, in test [2] (broad range of ATP concentrations), the “mechanism of inhibition of translocation ATPase” value is reported as “only non-competitively”.
On to `[N-]=[N+]=[N-].[Na+]` [azide, sodium azide], for which the “effect on SecA intrinsic ATPase activity” value on EcSecA intrinsic ATPase [3] is listed as “does not affect”.
